Measured values published in patent publication US20040115706A1, “High-throughput methods for identifying quadruplex forming nucleic acids and modulators thereof” (priority 2002, published 2004).

Columns and labels:
Format in all cases: binding
[1] = Identification of quadruplex forming nucleic acids by probing with NMM; settings: for capability of forming a quadruplex structure: 0.1 to 10 μM test nucleic acid probed with 3 μM NMM, FIG. 2C; for interaction with NMM (quadruplex forming profile): 3 μM NMM, FIG. 2E
Experimental: (§1) A typical assay was carried out in 100 μl of 20 mM HEPES buffer, pH 7.0, 140 mM NaCl, and 100 mM KCl. Fifty μl of quadruplex nucleic acid or a nucleic acid not capable of forming a quadruplex were added in 96-well plate. 50 μl of signal molecule was then added for a final concentration of 3 μM. N-methylmesoporphyrin IX (NMM) and meso-tetrakis(N-methyl-4-pyridyl)porphine (TMPyP4) were tested as signal molecules. Fluorescence was measured at an excitation wavelength of 420 nm and an emission wavelength of 660 nm for each of these signal molecules using a FluoStar 2000 fluorometer (BMG Labtechnologies, Durham, N.C.). NMM and TMPyP4 were obtained from Frontier Scientific Inc, Logan, Utah. Fluorescence was plotted as a function of concentration of nucleic acid added to the system at a constant 3 μM concentration of NMM (FIG. 2A) or TMPyP4 (FIG. 2B).
In this study, several oligonucleotides were analyzed to determine which of them were capable of forming quadruplex structures. The oligonucleotides in Table 2 were synthesized by Applied Biosystems (Foster City, Calif.).
FIG. 2E depicts quadruplex forming profiles for oligonucleotides QB-1 and QB-11 to QB-25.

[2] = system: quadruplex nucleic acid QB-1; assay: Signal molecule fluorescence assay with quadruplex nucleic acid; settings: for fluorescent signal / interaction with quadruplex nucleic acid QB-1: 3 μM signal molecule, excitation 420 nm, emission 660 nm, FIG. 2A/2B
Experimental: as §1, with “Fifty” for “A typical assay was carried out in 100 μl of 20 mM HEPES buffer, pH 7.0, 140 mM NaCl, and 100 mM KCl. Fifty”

[3] = system: non-quadruplex nucleic acid QB-2; assay: Signal molecule fluorescence assay with nucleic acid not capable of forming a quadruplex; settings: 3 μM signal molecule; excitation 420 nm, emission 660 nm; FIG. 2A/2B
Experimental: as §1

ds DNA pGL3 = assay: EB competition with NMM or TMPyP4 for ds DNA; settings: 6.5 μg/μl pGL3; presence or absence of EB; FIG. 4C
Experimental: Next, the effect of EB competition with NMM or TMPyP4 for ds DNA was assessed. The assay was carried out as described in the previous paragraph, with 6.5 μg/μl pGL3, and the results were graphically compiled in FIG. 4C.
pGL3 was purchased from Promega, Madison, Wis. pGL3/myc included the nuclease hypersensitive element (NHE) MYC8 fragment from the proximal region of human c-MYC. pGL3/myc was constructed by cloning the MYC8 fragment from human genomic DNA (Promega, Madison, Wis.) and inserting that fragment into the multiple cloning site of the pGL3 vector via Nhe I and Bgl II digestion and ligation. The MYC8 fragment (840 bp) was cloned from human genomic DNA using two primer oligonucleotides. The sense strand primer oligonucleotide for the c-MYC regulatory region had the nucleotide sequence 5′-[…]-3′ (SEQ ID NO: 36; Nhe I site is underlined), which corresponded to site 1993 in the sense strand GenBank sequence. The antisense primer had the nucleotide sequence 5′-[…]-3′ (SEQ ID NO: 37; Bgl II site is underlined), which corresponded to site 2833 in the sense strand GenBank sequence. The Genbank sequence was the Homo sapiens MYC gene, c-myc proto-oncogene and ORF1, Length=10996 (http address: www.ncbi.nlm.nih.gov/entrez/query.fcgi?cmd=Retrieve&db=nucleotide&list_uids=188965&dopt=GenBank). The construct was confirmed by sequencing.

ss DNA QB-1 = assay: Specificity of signal molecules for single-stranded DNA; settings: 3 μM NMM (FIG. 4A) or 3 μM EB (FIG. 4B)
Experimental: (§2) The specificity of signal molecules NMM and ethidium bromide was assessed with respect to single-stranded (ss) DNA and double-stranded (ds) DNA. Fluorescence was plotted as a function of the concentration of ss DNA QB-1 or ds DNAs pGL3E or pGL3E/myc, under conditions of 3 μM NMM (FIG. 4A) or 3 μM EB (FIG. 4B). Fluorescence of NMM was measured as described in Example 1. Fluorescence of EB was measured at an excitation wavelength of 485 nm and an emission wavelength 590 nm using a FluoStar 2000 fluorometer (BMG Labtechnologies, Durham, N.C.). Ethidium bromide (EB) was obtained from Calbiochem, San Diego, Calif.

[4] = system: ds DNAs pGL3E or pGL3E/myc; assay: Specificity of signal molecules for double-stranded DNA; settings: 3 μM NMM (FIG. 4A) or 3 μM EB (FIG. 4B)
Experimental: as §2
pGL3 was purchased from Promega, Madison, Wis. pGL3/myc included the nuclease hypersensitive element (NHE) MYC8 fragment from the proximal region of human c-MYC. pGL3/myc was constructed by cloning the MYC8 fragment from human genomic DNA (Promega, Madison, Wis.) and inserting that fragment into the multiple cloning site of the pGL3 vector via Nhe I and Bgl II digestion and ligation. The MYC8 fragment (840 bp) was cloned from human genomic DNA using two primer oligonucleotides. The sense strand primer oligonucleotide for the c-MYC regulatory region had the nucleotide sequence 5′-[…]-3′ (SEQ ID NO: 36; Nhe I site is underlined), which corresponded to site 1993 in the sense strand GenBank sequence. […]

[5] = system: quadruplex nucleic acid QB-1; assay: Competition of test molecules with NMM for quadruplex nucleic acid QB-1; settings: QB-1 5 μM, NMM 3 μM; FIG. 3
Experimental: Test molecules were mixed with the quadruplex nucleic acid QB-1 in a 96-well plate and fluorescence backgrounds were monitored under the conditions specified in Example 1. NMM was then added to wells in the 96-well plate to a final concentration of 3 μM. Fluorescence of NMM was measured at an excitation wavelength of 420 nm and an emission wavelength of 660 nm using a FluoStar 2000 fluorometer (BMG Labtechnologies, Durham, N.C.). Maximum fluorescent signals for NMM were assessed in the absence of the test molecules. Fluorescence was plotted as a function of the concentration of three test molecules with constant concentrations of QB-1 (5 μM) and NMM (3 μM)(FIG. 3). The test compounds were telomestatin, QQ28, and serinodisaphyrin (see, e.g., Shin-ya et al., J. Am. Chem. Soc. 123:1262 (2001); Duan et al., Mol. Cancer Therapeutics 1:103 (2001)).

Which “capability of forming a quadruplex structure” value (“capability” below) [1] does the source give for “QB-1: 5′-AGGGTGGGGAGGGTGGGGAA-3′, SEQ ID NO 17, c-MYC (DNA, backbone not given here)” here?
Its value is “capable of forming a quadruplex structure”.

Which “interaction with NMM (quadruplex forming profile)” value (from here on “interaction with NMM”) [1] does the source give for “QB-23: 5′-CGCTTGATGAGTCAGCCGGAA-3′, SEQ ID NO 33, AP-1 (DNA, backbone and methylation of C not given here)” here?
Its value is “did not appreciably interact with NMM”.

With `C[n+]1ccc(-c2c3nc(c(-c4cc[n+](C)cc4)c4ccc([nH]4)c(-c4cc[n+](C)cc4)c4nc(c(-c5cc[n+](C)cc5)c5ccc2[nH]5)C=C4)C=C3)cc1` [TMPyP4, meso-tetrakis(N-methyl-4-pyridyl)porphine] as the molecule, how does the “change of emitted signal with increasing quadruplex nucleic acid concentrations” value ([2]; 3 μM TMPyP4, FIG. 2B, likely due to quenching) read?
The value was “decreased with increasing quadruplex nucleic acid concentrations”.

And the “fluorescent signal / interaction with quadruplex nucleic acid QB-1” value [2]?
The value was “varied significantly”.

What about the “fluorescent signal / interaction with non-quadruplex nucleic acid QB-2” value [3] of the same molecule?
The value was “varied significantly”.

What about the “interaction with ds DNA” value (ds DNA pGL3) of the same molecule?
Its value is “did interact with ds DNA”.

Which “interaction with NMM” value [1] does the source give for “QB-20: 5′-GTGGTGGGTGGGTGGGT-3′, SEQ ID NO 30, T30177 (DNA, backbone not given here)” here?
The value was “interacted most significantly”.

For “QB-9: 5′-GGGGTTTTGGGG-3′, SEQ ID NO 19, dimers for quadruplex of basket or crossover structure (DNA, backbone not given here)”, which “capability” value [1] is on record?
Its value is “capable of forming a quadruplex structure”.

With “QB-25: 5′-CCTTCCCCACCCTCCCCACCCTCCCCA-3′, SEQ ID NO 35, c-MYC (DNA, backbone and methylation of C not given here)” as the molecule, how does the “interaction with NMM” value [1] read?
Its value is “did not appreciably interact with NMM”.

Which “fluorescent signal / interaction with quadruplex nucleic acid QB-1” value [2] does the source give for `CCC1=C(C)c2cc3[nH]c(cc4nc(cc5c(CCC(=O)O)c(C)c(cc1n2)n5C)C(CCC(=O)O)=C4C)c(C)c3CC` [NMM, N-methylmesoporphyrin IX] here?
The value was “interacted with quadruplex nucleic acid QB-1”.

And the “stabilization of quadruplex structure” value ([2]; without the addition of potassium ions, FIG. 2A)?
The value was “could stabilize quadruplex structure without the addition of potassium ions”.

What about the “fluorescent signal / interaction with non-quadruplex nucleic acid QB-2” value [3] of the same molecule?
Its value is “did not interact appreciably”.

And the “interaction with single-stranded DNA” value (ss DNA QB-1)?
The value was “interacted with ssDNA”.

And the “interaction with double-stranded DNA” value [4]?
The value was “did not interact appreciably with ds DNA”.

And the “interaction with ds DNA” value (ds DNA pGL3)?
Its value is “did not interact with ds DNA”.

With “QB-10: 5′-GGTTGGTGTGGTTGG-3′, SEQ ID NO 20, intramolecular edge, or chair structure (DNA, backbone not given here)” as the molecule, how does the “capability” value [1] read?
The value was “capable of forming a quadruplex structure”.

Which “affinity of interaction with the quadruplex DNA (competition with NMM)” value [5] does the source give for serinodisaphyrin here?
Its value is “intermediate affinity”.

And the “identification as quadruplex interacting molecule” value [5]?
Its value is “identified as quadruplex interacting molecules”.
